From patent publication US20250221410A1, “SUBSTITUTED 2-C-AZINES AND SALTS THEREOF, AND USE THEREOF AS HERBICIDAL ACTIVE SUBSTANCES” (BAYER AKTIENGESELLSCHAFT, priority 2022, published 2025)

Key:
Type in all cases: in vivo
[1] = system: ABUTH: Abutilon theophrasti; test: Post-emergence herbicidal efficacy at 1280 g/ha, ABUTH; conditions: rated visually after about 3 weeks vs untreated controls, 100% = plants have died, 0% = like control plants
Summary of the method: (§1)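 Greenhouse pot test in sandy loam. Plants at the one-leaf stage, 2–3 weeks after sowing, were sprayed post-emergence with WP or EC formulations in water containing 0.5% additive, at 600 L/ha. Activity was scored visually about 3 weeks later against untreated controls (100% = dead, 0% = as control).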

[2] = system: AMARE: Amaranthus retroflexus; test: Post-emergence herbicidal efficacy at 1280 g/ha, AMARE; conditions: rated visually after about 3 weeks vs untreated controls, 100% = plants have died, 0% = like control plants
Summary of the method: as §1

[3] = system: DIGSA: Digitaria sanguinalis; test: Post-emergence herbicidal efficacy at 1280 g/ha, DIGSA; conditions: rated visually after about 3 weeks vs untreated controls, 100% = plants have died, 0% = like control plants
Summary of the method: as §1

[4] = system: ECHCG: Echinochloa crus-galli; test: Post-emergence herbicidal efficacy at 1280 g/ha, ECHCG; conditions: rated visually after about 3 weeks vs untreated controls, 100% = plants have died, 0% = like control plants
Summary of the method: as §1

KCHSC: Kochia scoparia [5] = test: Post-emergence herbicidal efficacy at 1280 g/ha, KCHSC; conditions: visual rating about 3 weeks after treatment vs untreated controls
Summary of the method: as §1

POAAN: Poa annua [6] = test: Post-emergence herbicidal efficacy at 1280 g/ha, POAAN; conditions: visual rating about 3 weeks after treatment vs untreated controls
Summary of the method: as §1

SETVI: Setaria viridis [7] = test: Post-emergence herbicidal efficacy at 1280 g/ha, SETVI; conditions: visual rating about 3 weeks after treatment vs untreated controls
Summary of the method: as §1

STEME: Stellaria media [8] = test: Post-emergence herbicidal efficacy at 1280 g/ha, STEME; conditions: visual rating about 3 weeks after treatment vs untreated controls
Summary of the method: as §1

VERPE: Veronica persica [9] = test: Post-emergence herbicidal efficacy at 1280 g/ha, VERPE; conditions: visual rating about 3 weeks after treatment vs untreated controls
Summary of the method: as §1

[10] = system: ABUTH: Abutilon theophrasti; test: Pre-emergence herbicide efficacy at 1280 g/ha, ABUTH; conditions: visual scoring after about 3 weeks vs untreated controls
Summary of the method: (§2)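 Efficacy is a visual percentage rating against untreated controls, taken about 3 weeks after soil-surface application to freshly sown, soil-covered seeds in sandy loam.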

[11] = system: ALOMY: Alopecurus myosuroides; test: Pre-emergence herbicide efficacy at 1280 g/ha, ALOMY; conditions: visual scoring after about 3 weeks vs untreated controls
Text: (§3) Seeds of mono- and dicotyledonous weed plants were placed in plastic pots in sandy loam soil (doubly sown with one species each of mono- or dicotyledonous weed plants per pot) and covered with soil. The compounds of the invention, formulated in the form of wettable powders (WP) or as emulsion concentrates (EC), were then applied to the surface of the covering soil as aqueous suspension or emulsion with addition of 0.5% additive at a water application rate of 600 litres per hectare (converted). After the treatment, the pots were placed in a greenhouse and kept under good growth conditions for the test plants. After about 3 weeks, the efficacy of the preparations was scored visually in comparison with untreated controls as percentages. For example, 100% activity=the plants have died, 0% activity=like control plants. Tables C1 to C12 below show the effects of selected compounds of the general formula (I) according to Table 1 on various harmful plants and at an application rate corresponding to 1280 g/ha, which were obtained by the trial procedure specified above.

[12] = system: AMARE: Amaranthus retroflexus; test: Pre-emergence herbicide efficacy at 1280 g/ha, AMARE; conditions: visual scoring after about 3 weeks vs untreated controls
Summary of the method: as §2

[13] = system: DIGSA: Digitaria sanguinalis; test: Pre-emergence herbicide efficacy at 1280 g/ha, DIGSA; conditions: visual scoring after about 3 weeks vs untreated controls
Summary of the method: as §2

[14] = system: ECHCG: Echinochloa crus-galli; test: Pre-emergence herbicide efficacy at 1280 g/ha, ECHCG; conditions: visual scoring after about 3 weeks vs untreated controls
Summary of the method: as §2

KCHSC: Kochia scoparia [15] = test: Pre-emergence herbicide efficacy at 1280 g/ha, KCHSC; conditions: visual scoring after about 3 weeks vs untreated controls
Summary of the method: as §2

LOLRI: Lolium rigidum [16] = test: Pre-emergence herbicide efficacy at 1280 g/ha, LOLRI; conditions: visual scoring after about 3 weeks vs untreated controls
Text: as §3

[17] = system: MATIN: Matricaria inodora; test: Pre-emergence herbicide efficacy at 1280 g/ha, MATIN; conditions: visual scoring after about 3 weeks vs untreated controls
Summary of the method: as §2

POAAN: Poa annua [18] = test: Pre-emergence herbicide efficacy at 1280 g/ha, POAAN; conditions: visual scoring after about 3 weeks vs untreated controls
Summary of the method: as §2

SETVI: Setaria viridis [19] = test: Pre-emergence herbicide efficacy at 1280 g/ha, SETVI; conditions: visual scoring vs untreated controls
Summary of the method: as §2

STEME: Stellaria media [20] = test: Pre-emergence herbicide efficacy at 1280 g/ha, STEME; conditions: visual scoring vs untreated controls
Summary of the method: as §2

VERPE: Veronica persica [21] = test: Pre-emergence herbicide efficacy at 1280 g/ha, VERPE; conditions: visual scoring vs untreated controls
Summary of the method: as §2

[22] = system: ALOMY: Alopecurus myosuroides; test: Post-emergence herbicidal efficacy at 1280 g/ha, ALOMY; conditions: rated visually after about 3 weeks vs untreated controls, 100% = plants have died, 0% = like control plants
Description: (§4) Seeds of mono- and dicotyledonous weed plants were placed in plastic pots in sandy loam soil (doubly sown with in each case one species of mono- or dicotyledonous weed plants per pot), covered with soil and cultivated in a greenhouse under controlled growth conditions. 2 to 3 weeks after sowing, the test plants were treated at the one-leaf stage. The compounds of the invention, formulated in the form of wettable powders (WP) or as emulsion concentrates (EC), were applied to the green parts of the plants as aqueous suspension or emulsion with addition of 0.5% additive at a water application rate equivalent to 600 litres per hectare. After the test plants had been kept in the greenhouse under optimum growth conditions for about 3 weeks, the activity of the preparations was rated visually in comparison to untreated controls. For example, 100% activity=the plants have died, 0% activity=like control plants. Tables A1 to A12 below show the effects of selected compounds of the general formula (I) according to Table 1 on various harmful plants and at an application rate corresponding to 1280 g/ha, which were obtained by the trial procedure specified above.

LOLRI: Lolium rigidum [23] = test: Post-emergence herbicidal efficacy at 1280 g/ha, LOLRI; conditions: visual rating about 3 weeks after treatment vs untreated controls
Description: as §4

[24] = system: AMARE: Amaranthus retroflexus; test: Post-emergence herbicidal efficacy at 80 g/ha, AMARE; conditions: visual rating about 3 weeks after treatment vs untreated controls
Summary of the method: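 Sow in sandy loam and grow in the greenhouse for 2 to 3 weeks. Spray the green parts at the one-leaf stage with a WP or EC suspension or emulsion plus 0.5% additive at 600 l/ha water. Keep plants about 3 weeks, then score damage visually against controls.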

[25] = system: ABUTH: Abutilon theophrasti; test: Pre-emergence herbicide efficacy at 80 g/ha, ABUTH; conditions: scored visually after about 3 weeks
Text: (§5) Seeds of monocotyledonous and dicotyledonous weed plants and crop plants were placed in plastic or organic planting pots and covered with soil. The compounds of the invention, formulated in the form of wettable powders (WP) or as emulsion concentrates (EC), were then applied to the surface of the covering soil as aqueous suspension or emulsion with addition of 0.5% additive at a water application rate equivalent to 600 l/ha. After the treatment, the pots were placed in a greenhouse and kept under good growth conditions for the test plants. After about 3 weeks, the efficacy of the preparations was scored visually in comparison with untreated controls as percentages. For example, 100% activity=the plants have died, 0% activity=like control plants. Tables D1 to D12 below show the effects of selected compounds of the general formula (I) according to Table 1 on various harmful plants and an application rate corresponding to 80 g/ha, which were obtained by the experimental procedure mentioned above.

[26] = system: AMARE: Amaranthus retroflexus; test: Pre-emergence herbicide efficacy at 80 g/ha, AMARE; conditions: scored visually after about 3 weeks
Summary of the method: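 Applied to the soil surface directly after sowing, before emergence, as an aqueous WP or EC preparation containing 0.5% additive. Percent efficacy was rated by eye about 3 weeks later in the greenhouse.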

[27] = system: DIGSA: Digitaria sanguinalis; test: Pre-emergence herbicide efficacy at 80 g/ha, DIGSA; conditions: scored visually after about 3 weeks
Text: as §5

[28] = system: MATIN: Matricaria inodora; test: Pre-emergence herbicide efficacy at 80 g/ha, MATIN; conditions: scored visually after about 3 weeks
Text: as §5

POLCO = test: Pre-emergence herbicide efficacy at 80 g/ha, POLCO; conditions: Polygonum convolvulus, scored visually after about 3 weeks
Text: as §5

Compound | Post-emergence efficacy at 1280 g/ha against ABUTH in % [1] [%] | Post-emergence efficacy at 1280 g/ha against AMARE in % [2] [%] | Post-emergence efficacy at 1280 g/ha against ECHCG in % [4] [%] | Post-emergence efficacy against KCHSC (KCHSC: Kochia scoparia [5]) [%] | Post-emergence efficacy against POAAN (POAAN: Poa annua [6]) [%] | Post-emergence efficacy against SETVI (SETVI: Setaria viridis [7]) [%] | Post-emergence efficacy against STEME (STEME: Stellaria media [8]) [%] | Post-emergence efficacy against VERPE (VERPE: Veronica persica [9]) [%] | Pre-emergence efficacy against ABUTH [10] [%] | Pre-emergence efficacy against AMARE [12] [%] | Pre-emergence efficacy against POAAN (POAAN: Poa annua [18]) [%] | Pre-emergence efficacy against SETVI in % (SETVI: Setaria viridis [19]) [%] | Pre-emergence efficacy against STEME in % (STEME: Stellaria media [20]) [%] | Pre-emergence efficacy against VERPE in % (VERPE: Veronica persica [21]) [%] | other results
Fc1cnc(Oc2cccc(Cl)c2Cc2ncc(Cl)cn2)nc1 [Example 1-57] | 90 | 90 | 90 | 90 | 90 | 90 | 90 | 90 | 100 | 100 | 100 | 100 | 100 | 100 | Post-emergence efficacy at 1280 g/ha against DIGSA in % [3]: 90%; Pre-emergence efficacy against ALOMY [11]: 100%; Pre-emergence efficacy against DIGSA [13]: 100%; Pre-emergence efficacy against ECHCG [14]: 100%; Pre-emergence efficacy against KCHSC (KCHSC: Kochia scoparia [15]): 100%; Pre-emergence efficacy against LOLRI (LOLRI: Lolium rigidum [16]): 100%; Pre-emergence efficacy against MATIN [17]: 100%
Fc1cc(Cl)cnc1Cc1ccccc1-n1cc(C(F)(F)F)cn1 [Example 1-130] | 100 | 100 | 90 | 100 | 100 | 90 | 100 | 100 | 100 | 100 | 90 | 90 |  | 90 | Post-emergence efficacy at 1280 g/ha against ALOMY in % [22]: 90%
Fc1cc(Cl)cnc1Cc1ccccc1SCCC(F)(F)F [Example 1-110] | 90 | 100 |  | 90 | 100 |  | 100 | 100 | 90 | 100 | 90 |  | 100 |  | Post-emergence efficacy against LOLRI (LOLRI: Lolium rigidum [23]): 90%
Fc1cnc(Cc2cccc(Cl)c2Oc2ncc(F)cn2)nc1 [Example 1-156] |  |  |  |  |  |  |  |  |  |  |  |  |  |  | Post-emergence efficacy against AMARE [24]: 80%; Pre-emergence efficacy against ABUTH in % [25]: 90%; Pre-emergence efficacy against AMARE in % [26]: 100%; Pre-emergence efficacy against DIGSA in % [27]: 90%; Pre-emergence efficacy against MATIN in % [28]: 80%; Pre-emergence efficacy against POLCO in % (POLCO): 80%
